Results reported in patent publication US20080009418A1, “Selective Inhibitors” (Alchemia LTD., priority 2004, published 2008).

Assays:
Human δ-opioid (DOP) = target: T1, Human δ-opioid (DOP) (Homo sapiens, UniProt P41143); test: Radioligand binding, human δ-opioid (DOP) membranes, FlashPlate, [3H]-Bremazocine; settings: compound at 10 μM; human δ-opioid (DOP) membranes
T1 construct: purchased Perkin Elmer Biosignal
Procedure, shortened: (§1)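 Cloned human receptor membranes were coated onto FlashPlate wells and incubated with radioligand and compound (added from a 0.5 mM DMSO daughter plate) for 1 hour at room temperature in the dark. Scintillation counting gave percent inhibition, with DMSO defining total and reference ligand defining non-specific binding.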

Human κ-Opioid (KOP) = target: T2, Human κ-Opioid (KOP) (Homo sapiens, UniProt P41145); test: Radioligand binding, human κ-opioid (KOP) membranes, filtration, [3H]-Diprenorphine; settings: compound at 10 μM; human κ-opioid (KOP) membranes
T2 construct: purchased Perkin Elmer Biosignal
Procedure, shortened: (§2)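 Percent inhibition of radioligand binding measured on recombinant human membranes: NK1 with [125I]-Substance P, KOP with [3H]-Diprenorphine. Incubation 1 h at room temperature, then harvest onto 0.3% PEI-soaked filters, cold Tris-HCl pH 7.4 washes and scintillation counting; non-specific binding from reference ligand wells.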

Human Melanocortin (MC3) = target: T3, Human Melanocortin (MC3) (Homo sapiens, UniProt P41968); test: Radioligand binding, human melanocortin MC3 membranes, FlashPlate, [125I]-NDP-αMSH; settings: compound at 10 μM; human melanocortin MC3 membranes
T3 construct: purchased Perkin Elmer Biosignal
Procedure, shortened: as §1

Human Melanocortin (MC4) = target: T4, Human Melanocortin (MC4) (Homo sapiens, UniProt P32245); test: Radioligand binding, human melanocortin MC4 membranes, FlashPlate, [125I]-NDP-αMSH; settings: compound at 10 μM; human melanocortin MC4 membranes
T4 construct: purchased Perkin Elmer Biosignal
Procedure, shortened: as §1

Human melanocortin (MC5) = target: T5, Human melanocortin (MC5) (Homo sapiens, UniProt P33032); test: Radioligand binding, human melanocortin MC5 membranes, FlashPlate, [125I]-NDP-αMSH; settings: compound at 10 μM; human melanocortin MC5 membranes
T5 construct: purchased Perkin Elmer Biosignal
Procedure, shortened: as §1

[1] = target: T6, Human melanin-concentrating hormone (MCH1) (Homo sapiens, UniProt Q99705); test: Radioligand binding, human melanin-concentrating hormone MCH1 membranes, FlashPlate, [125I]-S36057; settings: compound at 10 μM; human MCH1 membranes
T6 construct: purchased Perkin Elmer Biosignal
Procedure, shortened: as §1

Human μ-opioid (MOP) = target: T7, Human μ-opioid (MOP) (Homo sapiens, UniProt P35372); test: Radioligand binding, human μ-opioid (MOP) membranes, FlashPlate, [3H]-Naloxone; settings: compound at 10 μM; human μ-opioid (MOP) membranes
T7 construct: purchased Perkin Elmer Biosignal
Procedure, shortened: as §1

Human neurokinin (NK1) = target: T8, Human neurokinin (NK1) (Homo sapiens, UniProt P25103); test: Radioligand binding, human neurokinin NK1 membranes, filtration, [125I]-Substance P; settings: compound at 10 μM; human neurokinin NK1 membranes
T8 construct: purchased Perkin Elmer Biosignal
Procedure, shortened: as §2

[2] = target: T9, Human neuropeptide Y (NPY-Y1) (Homo sapiens, UniProt P25929); test: Radioligand binding, human neuropeptide Y NPY-Y1 membranes, FlashPlate, [125I]-PYY; settings: compound at 10 μM; human NPY-Y1 membranes
T9 construct: purchased Perkin Elmer Biosignal
T9 sequence (P25929 1-384): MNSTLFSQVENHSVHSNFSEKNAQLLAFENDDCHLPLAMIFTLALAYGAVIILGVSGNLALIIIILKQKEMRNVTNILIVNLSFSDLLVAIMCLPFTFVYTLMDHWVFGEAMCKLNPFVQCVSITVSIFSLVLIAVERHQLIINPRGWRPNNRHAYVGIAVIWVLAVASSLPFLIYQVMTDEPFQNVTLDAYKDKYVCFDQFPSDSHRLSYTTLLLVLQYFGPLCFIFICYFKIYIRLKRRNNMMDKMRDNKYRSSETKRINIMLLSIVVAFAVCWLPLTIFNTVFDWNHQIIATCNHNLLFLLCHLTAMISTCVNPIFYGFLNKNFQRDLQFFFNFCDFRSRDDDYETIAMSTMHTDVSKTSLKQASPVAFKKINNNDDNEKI
Procedure, shortened: as §1

Human opioid (ORL1) = target: T10, Human opioid (ORL1) (Homo sapiens, UniProt P41146); test: Radioligand binding, human opioid ORL1 membranes, FlashPlate, [125I]-Nociceptin; settings: compound at 10 μM; human ORL1 membranes
T10 construct: purchased Perkin Elmer Biosignal
Procedure, shortened: as §1

Mouse urotensin (mUR2) = target: T11, Mouse urotensin (mUR2) (Mus musculus, UniProt Q8VIH9); test: Radioligand binding, mouse urotensin mUR2 membranes, FlashPlate, [125I]-Urotensin II; settings: compound at 10 μM; mouse urotensin mUR2 membranes
T11 construct: purchased Perkin Elmer Biosignal
T11 sequence (Q8VIH9 1-385): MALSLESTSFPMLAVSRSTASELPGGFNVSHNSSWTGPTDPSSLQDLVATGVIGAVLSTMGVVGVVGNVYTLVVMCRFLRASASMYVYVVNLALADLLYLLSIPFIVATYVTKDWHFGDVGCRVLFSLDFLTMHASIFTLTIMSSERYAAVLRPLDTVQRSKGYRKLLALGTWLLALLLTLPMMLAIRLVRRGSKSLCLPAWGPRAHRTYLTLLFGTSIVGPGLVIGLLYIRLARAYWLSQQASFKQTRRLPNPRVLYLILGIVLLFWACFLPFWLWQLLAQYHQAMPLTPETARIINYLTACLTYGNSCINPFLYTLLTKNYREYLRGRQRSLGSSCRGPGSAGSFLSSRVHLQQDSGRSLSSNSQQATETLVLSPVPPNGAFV
Procedure, shortened: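 Cloned mouse urotensin (mUR2) receptor membranes from Perkin Elmer Biosignal were immobilized in FlashPlate microplates using a proprietary coating. Each well got 19.5 μl buffer, then 0.5 μl of DMSO, reference ligand, or compound. Adding 5 μl of [125I]-Urotensin II, diluted to 5× final concentration in binding buffer, started binding. Plates were sealed with TopSeal-A and incubated 1 hour at room temperature in the dark. Wells were counted for 30 seconds each on a TopCount after a 60-second delay, and percentage inhibition was calculated.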

T6 sequence (Q99705 whole entry): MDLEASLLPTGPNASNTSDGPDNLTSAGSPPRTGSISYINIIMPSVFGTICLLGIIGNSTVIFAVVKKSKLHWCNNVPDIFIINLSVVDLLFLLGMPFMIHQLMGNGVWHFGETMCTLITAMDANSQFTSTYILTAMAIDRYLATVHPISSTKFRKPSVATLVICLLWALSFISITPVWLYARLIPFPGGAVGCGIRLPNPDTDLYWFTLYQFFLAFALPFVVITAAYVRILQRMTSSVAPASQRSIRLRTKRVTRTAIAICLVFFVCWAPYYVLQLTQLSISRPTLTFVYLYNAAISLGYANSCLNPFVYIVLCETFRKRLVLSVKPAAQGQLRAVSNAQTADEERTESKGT
T1 sequence (P41143 whole entry): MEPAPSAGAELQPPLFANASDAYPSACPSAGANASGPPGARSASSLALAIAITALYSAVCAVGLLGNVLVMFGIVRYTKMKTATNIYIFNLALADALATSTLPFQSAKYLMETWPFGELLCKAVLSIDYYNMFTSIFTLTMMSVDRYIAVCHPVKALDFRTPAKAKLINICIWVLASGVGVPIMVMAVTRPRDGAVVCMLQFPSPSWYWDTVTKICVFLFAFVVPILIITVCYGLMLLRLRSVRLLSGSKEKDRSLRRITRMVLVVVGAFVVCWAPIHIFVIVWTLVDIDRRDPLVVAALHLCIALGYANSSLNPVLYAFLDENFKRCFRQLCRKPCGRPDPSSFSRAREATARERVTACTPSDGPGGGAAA
T2 sequence (P41145 whole entry): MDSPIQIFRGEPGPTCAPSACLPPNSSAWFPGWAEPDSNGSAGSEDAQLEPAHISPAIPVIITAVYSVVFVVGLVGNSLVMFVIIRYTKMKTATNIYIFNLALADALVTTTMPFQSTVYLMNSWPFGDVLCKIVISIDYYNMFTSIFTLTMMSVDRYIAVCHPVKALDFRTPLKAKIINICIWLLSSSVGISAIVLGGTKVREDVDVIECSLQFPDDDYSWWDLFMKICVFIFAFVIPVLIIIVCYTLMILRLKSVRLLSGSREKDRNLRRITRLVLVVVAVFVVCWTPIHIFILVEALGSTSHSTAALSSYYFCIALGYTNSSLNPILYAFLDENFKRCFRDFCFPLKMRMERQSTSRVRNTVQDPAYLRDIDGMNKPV
T5 sequence (P33032 whole entry): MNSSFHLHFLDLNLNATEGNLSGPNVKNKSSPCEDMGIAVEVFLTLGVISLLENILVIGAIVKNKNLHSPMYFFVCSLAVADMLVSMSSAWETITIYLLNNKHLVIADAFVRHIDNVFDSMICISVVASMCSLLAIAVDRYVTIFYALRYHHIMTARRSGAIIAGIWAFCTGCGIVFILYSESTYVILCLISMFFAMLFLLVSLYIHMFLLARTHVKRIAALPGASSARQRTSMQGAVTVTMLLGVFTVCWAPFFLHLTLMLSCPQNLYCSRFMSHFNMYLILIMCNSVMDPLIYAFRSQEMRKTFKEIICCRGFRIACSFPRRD
T8 sequence (P25103 whole entry): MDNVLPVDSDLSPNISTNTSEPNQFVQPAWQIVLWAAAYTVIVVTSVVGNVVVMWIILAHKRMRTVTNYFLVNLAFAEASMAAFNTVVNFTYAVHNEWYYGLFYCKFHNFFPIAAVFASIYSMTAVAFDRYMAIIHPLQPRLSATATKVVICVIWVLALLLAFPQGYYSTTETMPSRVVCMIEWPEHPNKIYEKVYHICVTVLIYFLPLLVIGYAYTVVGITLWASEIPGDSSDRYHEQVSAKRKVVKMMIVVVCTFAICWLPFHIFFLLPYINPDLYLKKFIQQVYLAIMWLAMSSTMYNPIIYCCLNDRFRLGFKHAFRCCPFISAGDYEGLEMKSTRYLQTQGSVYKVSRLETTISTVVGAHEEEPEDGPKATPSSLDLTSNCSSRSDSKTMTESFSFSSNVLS
T7 sequence (P35372 whole entry): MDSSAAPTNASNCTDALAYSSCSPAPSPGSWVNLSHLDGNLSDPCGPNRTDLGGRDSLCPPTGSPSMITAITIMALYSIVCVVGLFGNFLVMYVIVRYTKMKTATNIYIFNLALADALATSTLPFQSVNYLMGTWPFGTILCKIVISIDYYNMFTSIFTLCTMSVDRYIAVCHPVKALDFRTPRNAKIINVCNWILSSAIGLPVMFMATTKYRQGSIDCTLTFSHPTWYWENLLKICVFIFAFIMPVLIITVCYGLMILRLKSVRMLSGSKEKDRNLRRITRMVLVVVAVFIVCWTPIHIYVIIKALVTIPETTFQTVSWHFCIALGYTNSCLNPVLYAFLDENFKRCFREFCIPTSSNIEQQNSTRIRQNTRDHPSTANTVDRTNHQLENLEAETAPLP
T3 sequence (P41968 whole entry): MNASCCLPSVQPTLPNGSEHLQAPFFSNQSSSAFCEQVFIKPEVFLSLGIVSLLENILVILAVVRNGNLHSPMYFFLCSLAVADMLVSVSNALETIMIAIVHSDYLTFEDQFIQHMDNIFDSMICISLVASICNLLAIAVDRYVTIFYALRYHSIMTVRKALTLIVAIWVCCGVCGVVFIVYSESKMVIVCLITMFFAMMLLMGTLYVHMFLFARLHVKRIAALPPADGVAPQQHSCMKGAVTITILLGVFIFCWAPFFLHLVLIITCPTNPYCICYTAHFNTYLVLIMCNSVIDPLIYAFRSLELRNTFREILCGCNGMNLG
T4 sequence (P32245 whole entry): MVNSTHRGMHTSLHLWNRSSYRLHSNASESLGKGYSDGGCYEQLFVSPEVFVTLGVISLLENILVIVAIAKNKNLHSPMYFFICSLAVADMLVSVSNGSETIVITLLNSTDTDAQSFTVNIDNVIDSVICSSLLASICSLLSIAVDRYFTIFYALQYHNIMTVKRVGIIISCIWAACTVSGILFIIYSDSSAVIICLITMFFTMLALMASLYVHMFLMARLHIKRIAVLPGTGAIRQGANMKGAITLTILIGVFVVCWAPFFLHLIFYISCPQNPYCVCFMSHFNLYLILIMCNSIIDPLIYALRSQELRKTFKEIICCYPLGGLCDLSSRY
T10 sequence (P41146 whole entry): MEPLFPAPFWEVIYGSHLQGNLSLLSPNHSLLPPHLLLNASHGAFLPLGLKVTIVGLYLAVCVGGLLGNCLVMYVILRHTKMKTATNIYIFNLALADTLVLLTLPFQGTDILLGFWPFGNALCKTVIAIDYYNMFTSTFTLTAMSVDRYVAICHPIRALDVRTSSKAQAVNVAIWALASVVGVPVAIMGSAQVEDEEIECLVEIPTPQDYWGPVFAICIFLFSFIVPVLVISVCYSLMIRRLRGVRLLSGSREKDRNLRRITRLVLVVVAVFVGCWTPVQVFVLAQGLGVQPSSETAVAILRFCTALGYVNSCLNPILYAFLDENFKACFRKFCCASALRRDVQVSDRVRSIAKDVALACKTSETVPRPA

Structure (SMILES) | A1 radioligand binding inhibition (Human δ-opioid (DOP)) | A2 radioligand binding inhibition (Human κ-Opioid (KOP)) | A3 radioligand binding inhibition (Human Melanocortin (MC3)) | A4 radioligand binding inhibition (Human Melanocortin (MC4)) | A5 radioligand binding inhibition (Human melanocortin (MC5)) | A6 radioligand binding inhibition [1] | A7 radioligand binding inhibition (Human μ-opioid (MOP)) | A8 radioligand binding inhibition (Human neurokinin (NK1)) | A9 radioligand binding inhibition [2] | A10 radioligand binding inhibition (Human opioid (ORL1)) | A11 radioligand binding inhibition (Mouse urotensin (mUR2))
CO[C@H]1[C@H](O)[C@@H](COCc2ccccc2)OC(OCc2ccc3ccccc3c2)[C@@H]1NC(=O)CCCNC(=N)N (stereo partly drawn) [compound 77] | − (“−” indicates less than 50% inhibition at 10 μM) | − (“−” indicates less than 50% inhibition at 10 μM) | − (“−” indicates less than 50% inhibition at 10 μM) | − (“−” indicates less than 50% inhibition at 10 μM) | + (“+” indicates greater than 50% inhibition at 10 μM) | − (“−” indicates less than 50% inhibition at 10 μM) | + (“+” indicates greater than 50% inhibition at 10 μM) | + (“+” indicates greater than 50% inhibition at 10 μM) | − (“−” indicates less than 50% inhibition at 10 μM) | − (“−” indicates less than 50% inhibition at 10 μM) | − (“−” indicates less than 50% inhibition at 10 μM)
CO[C@H]1[C@H](O)[C@@H](COCc2ccc(Cl)cc2)OC(OCc2ccc3ccccc3c2)[C@@H]1NC(=O)CNC(=N)N (stereo partly drawn) [compound 78] | − (“−” indicates less than 50% inhibition at 10 μM) | − (“−” indicates less than 50% inhibition at 10 μM) | − (“−” indicates less than 50% inhibition at 10 μM) | − (“−” indicates less than 50% inhibition at 10 μM) | + (“+” indicates greater than 50% inhibition at 10 μM) | − (“−” indicates less than 50% inhibition at 10 μM) | − (“−” indicates less than 50% inhibition at 10 μM) | + (“+” indicates greater than 50% inhibition at 10 μM) | − (“−” indicates less than 50% inhibition at 10 μM) | − (“−” indicates less than 50% inhibition at 10 μM) | − (“−” indicates less than 50% inhibition at 10 μM)
CO[C@H]1[C@H](O)[C@@H](COCc2ccc(Cl)cc2)OC(OCc2ccc3ccccc3c2)[C@@H]1NC(=O)CCNC(=N)N (stereo partly drawn) [compound 79] | − (“−” indicates less than 50% inhibition at 10 μM) | − (“−” indicates less than 50% inhibition at 10 μM) | − (“−” indicates less than 50% inhibition at 10 μM) | + (“+” indicates greater than 50% inhibition at 10 μM) | + (“+” indicates greater than 50% inhibition at 10 μM) | − (“−” indicates less than 50% inhibition at 10 μM) | + (“+” indicates greater than 50% inhibition at 10 μM) | + (“+” indicates greater than 50% inhibition at 10 μM) | − (“−” indicates less than 50% inhibition at 10 μM) | − (“−” indicates less than 50% inhibition at 10 μM) | − (“−” indicates less than 50% inhibition at 10 μM)
CO[C@H]1[C@H](O)[C@@H](COCc2ccc(Cl)cc2)OC(OCc2ccc3ccccc3c2)[C@@H]1NC(=O)CCCN (stereo partly drawn) [compound 80] | − (“−” indicates less than 50% inhibition at 10 μM) | − (“−” indicates less than 50% inhibition at 10 μM) | − (“−” indicates less than 50% inhibition at 10 μM) | + (“+” indicates greater than 50% inhibition at 10 μM) | + (“+” indicates greater than 50% inhibition at 10 μM) | − (“−” indicates less than 50% inhibition at 10 μM) | − (“−” indicates less than 50% inhibition at 10 μM) | + (“+” indicates greater than 50% inhibition at 10 μM) | − (“−” indicates less than 50% inhibition at 10 μM) | − (“−” indicates less than 50% inhibition at 10 μM) | − (“−” indicates less than 50% inhibition at 10 μM)
CO[C@H]1[C@H](O)[C@@H](COCc2ccc(Cl)cc2)OC(OCc2ccc3ccccc3c2)[C@@H]1NC(=O)CCCNC(=N)N (stereo partly drawn) [compound 81] | − (“−” indicates less than 50% inhibition at 10 μM) | + (“+” indicates greater than 50% inhibition at 10 μM) | + (“+” indicates greater than 50% inhibition at 10 μM) | + (“+” indicates greater than 50% inhibition at 10 μM) | + (“+” indicates greater than 50% inhibition at 10 μM) | − (“−” indicates less than 50% inhibition at 10 μM) | + (“+” indicates greater than 50% inhibition at 10 μM) | + (“+” indicates greater than 50% inhibition at 10 μM) | − (“−” indicates less than 50% inhibition at 10 μM) | − (“−” indicates less than 50% inhibition at 10 μM) | − (“−” indicates less than 50% inhibition at 10 μM)
CO[C@H]1[C@H](O)[C@@H](COCc2ccc(-c3ccccc3)cc2)OC(OCc2ccccc2)[C@@H]1NC(=O)CNC(=N)N (stereo partly drawn) [compound 82] | − (“−” indicates less than 50% inhibition at 10 μM) | − (“−” indicates less than 50% inhibition at 10 μM) | − (“−” indicates less than 50% inhibition at 10 μM) | + (“+” indicates greater than 50% inhibition at 10 μM) | − (“−” indicates less than 50% inhibition at 10 μM) | − (“−” indicates less than 50% inhibition at 10 μM) | − (“−” indicates less than 50% inhibition at 10 μM) | + (“+” indicates greater than 50% inhibition at 10 μM) | − (“−” indicates less than 50% inhibition at 10 μM) | − (“−” indicates less than 50% inhibition at 10 μM) | − (“−” indicates less than 50% inhibition at 10 μM)
